Measured values reported in patent EP0874850B1, “NOVEL TRICYCLIC COMPOUNDS FOR THE INHIBITION OF THE ICE/CED-3 PROTEASE FAMILY OF ENZYMES” (Idun Pharmaceuticals, Inc., priority 1996, dated 1998).
Residues, ends and D or L forms follow the SMILES beside them. *: point of attachment. Cbz = O=C(OCc1ccccc1)*; CH2F = FC*

Key:
Assay type in all cases: biochemical
[1] = biological target: CPP32; experiment: Fluorescence enzyme assay, determination of IC50 values (CPP32); conditions: recombinant enzyme; 30 minutes preincubation at room temperature; substrate Acetyl-Asp-Glu-Val-Asp-amino-4-methylcoumarin
Description: (§1) The substrate is Acetyl-Tyr-Val-Ala-Asp-amino-4-methylcoumarin (AMC) for the ICE assay and Acetyl-Asp-Glu-Val-Asp-amino-4-methylcoumarin for the CPP32, Mch2, Mch3 and Mch5 assays. Enzyme reactions were run in ICE buffer (25 mM HEPES, 1 mM EDTA, 0.1% CHAPS, 10% sucrose, pH 7.5) containing 2 mM DTT at room temperature in duplicate.
(§2) The enzyme and the compound of Formula 1 to be assayed were allowed to preincubate in the microtitre plate wells for 30 minutes at room temperature prior to the addition of substrate to initiate the reaction. Fluorescent AMC product formation was monitored for one hour at room temperature by measuring the fluorescence emission at 460 nm using an excitation wavelength of 360 nm. […]
(§3) The reference compound for this assay was Cbz-ValAlaAsp-H and the values are denoted in Table 1 as "Reference".

[2] = biological target: mICE; experiment: Fluorescence enzyme assay, determination of IC50 values (ICE); conditions: recombinant enzyme; 30 minutes preincubation at room temperature; substrate Acetyl-Tyr-Val-Ala-Asp-amino-4-methylcoumarin
Description: as §1, §2, §3

[3] = biological target: MCH-3; experiment: Fluorescence enzyme assay, determination of IC50 values (Mch3); conditions: 30 minutes preincubation at room temperature; substrate Acetyl-Asp-Glu-Val-Asp-amino-4-methylcoumarin
Description: as §1, §2, §3

[4] = biological target: MCH-5; experiment: Fluorescence enzyme assay, determination of IC50 values (Mch5); conditions: 30 minutes preincubation at room temperature; substrate Acetyl-Asp-Glu-Val-Asp-amino-4-methylcoumarin
Description: as §1, §2, §3

[5] = biological target: MCH-2; experiment: Fluorescence enzyme assay, determination of IC50 values (Mch2); conditions: 30 minutes preincubation at room temperature; substrate Acetyl-Asp-Glu-Val-Asp-amino-4-methylcoumarin
Description: as §1, §2, §3

[6] = biological target: CPP32; experiment: Determination of dissociation constant Ki and irreversible rate constant k3 for irreversible inhibitors (CPP32)
From the text: (§4) For the irreversible inhibition of a ICE/ced-3 Family Protease enzyme with a competitive irreversible inhibitor; using the model represented by the following formulas: [drawing 15] [drawing 16] The product formation at time t may be expressed as: [formula] where E, I, EI and E-I denote the active enzyme, inhibitor, non-covalent enzyme-inhibitor complex and covalent enzyme-inhibitor adduct, respectively. The Ki value is the overall dissociation constant of the reversible binding steps, and k3 is the irreversible rate constant. The [S] and Ks values are the substate concentration and dissociation constant of the substrate bound to the enzyme, respectively. [E]^T is the total enzyme concentration.
(§5) The above equations were used to determine the Ki and k3 values of a given inhibitor bound to a ICE/ced-3 family protease. Thus, a continuous assay was run for sixty minutes at various concentrations of the inhibitor and the substrate. The assay was formulated essentially the same as described above for generating the data in Table 1, except that the reaction was initiated by adding the enzyme to the substrate-inhibitor mixture. The Ki and k3 values were obtained by simulating the product AMC formation as a function of time according to Equation I. The results of this second assay are set forth below in Table 2. […]

[7] = biological target: MCH-2; experiment: Determination of dissociation constant Ki and irreversible rate constant k3 for irreversible inhibitors (Mch2)
From the text: as §4, §5

[8] = biological target: mICE; experiment: Determination of dissociation constant Ki and irreversible rate constant k3 for irreversible inhibitors (ICE)
From the text: as §4, §5

[9] = biological target: MCH-5; experiment: Determination of dissociation constant Ki and irreversible rate constant k3 for irreversible inhibitors (Mch5)
From the text: as §4, §5

[10] = continuous assay for sixty minutes, reaction initiated by adding the enzyme

IC50 [1] | IC50 [2] | IC50 [3] | IC50 [4] | IC50 [5] | k3/Ki ([6]; Reference) | Ki [6, 10] | k3/Ki ([7]; Reference) | Ki [7, 10] | k3/Ki ([8]; Reference) | Ki [8, 10] | k3/Ki ([9]; Reference) | Ki [9, 10] | Molecule
47000 nM | 64 nM | > 10000 nM | 2960 nM | > 10000 nM |  |  |  |  |  |  |  |  | CC(C)[C@H](NC(=O)OCc1ccccc1)C(=O)N[C@@H](C)C(=O)N[C@H](C=O)CC(=O)O [Ref., Cbz-ValAlaAsp-H] (Cbz-Val-Ala-Asp-aldehyde)
 |  |  |  |  | 12,200 M^-1s^-1 | 820 nM | 2,950 M^-1s^-1 | 594 nM | 214,000 M^-1s^-1 | 15 nM | 83,300 M^-1s^-1 | 18 nM | Cbz-Val-Ala-Asp-CH2F [Reference]
